Reference: patent publication US8293705B2, “HCV protease inhibitors and uses thereof” (Avila Therapeutics, Inc., priority 2007, dated 2012)
Like-named read-outs stand apart in the source and are kept apart here.

Tests used:
[1] = target: T1, HCV NS3/4A 1b protease R155K (Hepatitis C virus genotype 1b, UniProt Q9WMX2, R1181K); assay: HCV protease FRET assay (IC50_APP), Example 16; format: biochemical; settings: reaction started immediately after enzyme addition, read-out: Inhibition (apparent IC50, IC50_APP), HCV R155K
T1 construct: 10× stocks of NS3/4A protease enzyme from Bioenza (Mountain View, Calif.); purchased Bioenza (Mountain View, Calif.)
Protocol: (§1) The following protocol was used to generate “apparent” IC50 (IC50 APP) values as depicted in Table 6, below. […] 5 μL of each enzyme were added to Corning (#3575) 384-well, black, microtiter plates (Corning, N.Y.) after spotting a 0.5 μL volume of 50% DMSO and serially diluted compounds prepared in 50% DMSO. Protease reactions were immediately started after enzyme addition with the addition of 45 μL of the FRET substrate and monitored for 60-90 minutes at λex485/λem520 in a Synergy^4 plate reader from BioTek (Winooski, Vt.). At the conclusion of each assay, progress curves from each well were examined for linear reaction kinetics and fit statistics (R^2, 95% confidence intervals, absolute sum of squares).
(§2) The compound numbers correspond to the compound numbers in Table 3. […] ;

[2] = target: T2, HCV NS3/4A 1b protease D168A (Hepatitis C virus genotype 1b, UniProt Q9WMX2, D1194A); assay: HCV protease FRET assay (IC50_APP), Example 16; format: biochemical
T2 construct: 10× stocks of NS3/4A protease enzyme from Bioenza (Mountain View, Calif.); purchased Bioenza (Mountain View, Calif.)
Protocol: as §1, §2

[3] = target: T3, HCV NS3/4A 1b protease wild type (Hepatitis C virus genotype 1b, UniProt Q9WMX2); assay: HCV protease FRET assay (IC50_APP), Example 16; format: biochemical
T3 construct: 10× stocks of NS3/4A protease enzyme from Bioenza (Mountain View, Calif.); purchased Bioenza (Mountain View, Calif.)
Protocol: as §1, §2

[4] = tested on: HCV RNA replicon in cell line ET (luc-ubi-neo/ET), human Huh7 hepatoma; assay: Replicon luciferase assay, Example 26; format: cell-based; settings: Hepatitis C virus, Huh-7, assay of Example 26, 72 hr; for EC50: read-out: Inhibition, Replicon, EC50 value; for EC90: read-out: Inhibition, Replicon, EC90 value
Protocol: The compounds were assayed to evaluate the antiviral activity and cytotoxicity of compounds using replicon-derived luciferase activity. This assay used the cell line ET (luc-ubi-neo/ET), which is a human Huh7 hepatoma cell line that contains an HCV RNA replicon with a stable luciferase (Luc) reporter and cell culture-adaptive mutations. The ET cell line was grown in a 5% CO2 incubator at 37° C. in Dulbecco's modified essential media (DMEM) supplemented with 2 mM L-glutamine, nonessential amino acids, 100 U of penicillin/ml, 100 μg of streptomycin/mL, and 10% fetal bovine serum. G418 (Geneticin; Invitrogen) was added at a final concentration of 400 ug//mL.
All cell culture reagents were obtained from Invitrogen (Carlsbad). Cells were trypsinized (1% trypsin:EDTA) and plated out at 5×10^3 cells/well in white 96-well assay plates (Costar) dedicated to cell number (cytotoxicity) or antiviral activity assessments. Test compounds were added at six 3-fold concentrations each and the assay was run in DMEM, 5% FBS, 1% pen-strep, 1% glutamine, 1% non essential amino acid. Human interferon alpha-2b (PBL Biolabs, New Brunswick, N.J.) was included in each run as a positive control compound. Cells were processed 72 hr post test compound addition when the cells were still subconfluent. Antiviral activity was measured by analyzing replicon-derived luciferase activity using the Steady-Glo Luciferase Assay System (Promega, Madison, Wis.) according to manufacturer's instruction. The number of cells in each well was determined by Cell Titer Blue Assay (Promega). Compound profile was derived by calculating applicable EC50 (effective concentration inhibiting virus replication by 50%), EC90 (effective concentration inhibiting virus replication by 90%), IC50 (concentration decreasing cell viability by 50%) and SI50 (selective index: […]) values.

SMILES	IC50 [1] [µM]	IC50 [2] [µM]	IC50 [3] [µM]	EC50 [4] [µM]	EC90 [4] [µM]	IC50 ([2]; read-out: Inhibition (apparent IC50, IC50_APP), HCV D168A, FRET, reaction started immediately after enzyme addition) [µM]	IC50 ([3]; read-out: Inhibition (apparent IC50, IC50_APP), WT, FRET, reaction started immediately after enzyme addition) [µM]
C=CC(=O)NC[C@@H]1NC(=O)OCC(C)(C)CC/C=C/c2cccc3c2CN(C3)C(=O)O[C@@H]2C[C@@H](C(=O)N[C@]3(C(=O)NS(=O)(=O)C4CC4)C[C@H]3C=C)N(C2)C1=O [Compound I-40]	< 0.01	0.01 to 0.1	< 0.01	–	–	–	–
C=C(C)C(=O)C[C@H](NC(=O)OC(C)(C)C)C(=O)N1CC(OC(=O)N2Cc3cccc(F)c3C2)C[C@H]1C(=O)N[C@]1(C(=O)NS(=O)(=O)C2CC2)C[C@H]1CC (some centres unmarked) [Compound I-69]	< 0.01	0.01 to 0.1	< 0.01	0.1 to 1	–	–	–
C=C[C@@H]1C[C@]1(NC(=O)[C@@H]1CC(OC(=O)N2Cc3cccc(F)c3C2)CN1C(=O)[C@H](CC/C=C/C(=O)OC)NC(=O)OC(C)(C)C)C(=O)NS(=O)(=O)C1CC1 (some centres unmarked) [Compound I-72]	0.01 to 0.1	0.1 to 1	< 0.01	–	–	–	–
C=C[C@@H]1C[C@]1(NC(=O)[C@@H]1CC(OC(=O)N2Cc3cccc(F)c3C2)CN1C(=O)[C@H](CCC(=O)/C=C\C(C)(C)C)NC(=O)OC(C)(C)C)C(=O)NS(=O)(=O)C1CC1 (some centres unmarked) [Compound I-71]	0.1 to 1	0.1 to 1	< 0.01	< 0.01	–	–	–
C=CC(=O)N1CC(C(NC(=O)OC2CCCC2)C(=O)N2CC(OC(=O)N3Cc4cccc(F)c4C3)C[C@H]2C(=O)N[C@]2(C(=O)NS(=O)(=O)C3CC3)C[C@H]2C=C)C1 (some centres unmarked) [Compound I-51]	0.01 to 0.1	0.01 to 0.1	< 0.01	0.1 to 1	1 to 10	–	–
CC(C)(C)OC(=O)N[C@H]1CCN(S(=O)(=O)c2ccccc2[N+](=O)[O-])CC/C=C\[C@@H]2C[C@@]2(C(=O)NS(=O)(=O)C2CC2)NC(=O)[C@@H]2CC(OC(=O)N3Cc4cccc(F)c4C3)CN2C1=O (some centres unmarked) [Compound I-53]	< 0.01	–	–	0.01 to 0.1	0.1 to 1	< 0.01	< 0.01
CCCCC(NC(=O)[C@@H]1C[C@@H](OC(=O)N2Cc3cccc(F)c3C2)CN1C(=O)[C@H](CCC(=O)C=C(C)C)NC(=O)OC(C)(C)C)C(=O)NS(=O)(=O)C1CC1 (stereo partly drawn) [Compound I-44, (3R,5S)-1-((S)-2-(tert-butoxycarbonylamino)-7-methyl-5-oxooct-6-enoyl)-5-(1-(cyclopropanesulfonamido)-1-oxohexan-2-ylcarbamoyl)pyrrolidin-3-yl 4-fluoroisoindoline-2-carboxylate]	1 to 10	1 to 10	< 0.01	–	–	–	–
C=C[C@@H]1C[C@]1(NC(=O)[C@@H]1C[C@@H]2CN1C(=O)[C@H](CC(=O)C=C(C)C)NC(=O)OCC(C)(C)CC/C=C/c1cccc3c1CN(C3)C(=O)O2)C(=O)NS(=O)(=O)C1CC1 [Compound I-79]	< 0.01	0.01 to 0.1	< 0.01	< 0.01	–	–	–
C=C[C@@H]1C[C@]1(NC(=O)[C@@H]1CC(OC(=O)N2Cc3cccc(F)c3C2)CN1C(=O)[C@H](CC(=O)C(=C)C)NC(=O)OC(C)(C)C)C(=O)NS(=O)(=O)C1CC1 (some centres unmarked) [Compound I-68]	< 0.01	< 0.01	< 0.01	0.1 to 1	–	–	–
C=CC(=O)NC[C@@H]1NC(=O)OCC(C)(C)CCCCc2cccc3c2CN(C3)C(=O)O[C@@H]2C[C@@H](C(=O)N[C@]3(C(=O)NS(=O)(=O)C4CC4)C[C@H]3C=C)N(C2)C1=O [Compound I-42]	0.01 to 0.1	0.01 to 0.1	< 0.01	–	–	–	–
C/C=C/C(=O)OC1CC/C=C\[C@@H]2C[C@@]2(C(=O)NS(=O)(=O)C2CC2)NC(=O)[C@@H]2C[C@@H](OC(=O)N3Cc4cccc(F)c4C3)CN2C(=O)[C@@H](NC(=O)OC(C)(C)C)CC1 (some centres unmarked) [Compound I-66]	< 0.01	< 0.01	< 0.01	–	–	–	–
C/C=C(\C)C(=O)CC[C@H](NC(=O)OC(C)(C)C)C(=O)N1CC(OC(=O)N2Cc3cccc(F)c3C2)C[C@H]1C(=O)N[C@]1(C(=O)NS(=O)(=O)C2CC2)C[C@H]1CC (some centres unmarked) [Compound I-39]	0.01 to 0.1	0.1 to 1	< 0.01	–	–	–	–
